Assay results published in patent US20150136603A1, “WATER-SOLUBLE, UV-ABSORBING AND/OR FLOURESCENT COMPONENTS WITH VERY HIGH ISOELECTRIC POINTS” (TEXAS A & M UNIVERSITY SYSTEM, priority 2004, published 2015).

Experiment: pKa values for the secondary alcohol OH group

SMILES | pKa | pKa value for the secondary alcohol OH group
OC[C@H]1O[C@H](O[C@H]2[C@H](O)[C@@H](O)C(O)O[C@@H]2CO)[C@H](O)[C@@H](O)[C@@H]1O (mixture of isomers) [maltose] | 11.9 | –
OC[C@@H](O)[C@@H](O)[C@H](O)[C@@H](O)CO [sorbitol] | 13.6 | –
OC[C@H]1O[C@@H]2O[C@H]3[C@H](O)[C@@H](O)[C@@H](O[C@H]4[C@H](O)[C@@H](O)[C@@H](O[C@H]5[C@H](O)[C@@H](O)[C@@H](O[C@H]6[C@H](O)[C@@H](O)[C@@H](O[C@H]7[C@H](O)[C@@H](O)[C@@H](O[C@H]1[C@H](O)[C@H]2O)O[C@@H]7CO)O[C@@H]6CO)O[C@@H]5CO)O[C@@H]4CO)O[C@@H]3CO [α-CD] | – | 12.05
